Test system: HEK293 cells
Assay: Signaling in HEK293 cells (immunoblot)
Type: cell-based, human
Procedure: Snap-frozen liver and harvested cells were lysed in buffer containing 50 mM Tris-HCl (pH 7.4), 150 mM NaCl, 1 mM EDTA, 1 mM Na3VO4, 20 mM NaF, 10 mM glycerophosphate, 1 mM PMSF, 10% glycerol, 1% Triton X-100 and protease inhibitor cocktail. For immunoprecipitation, the cell lysates were obtained in 0.3% CHAPS-containing lysis buffer, sonicated and centrifuged at 20,000 g for 15 min at 4° C., and the supernatant was incubated with 20 μl of anti-FLAG beads (Sigma) at 4° C. for 4 h under gentle agitation.
HEK293 cells (ATCC CRL-1573) were grown and maintained in high-glucose (4.5 g/l glucose) DMEM with 10% (v/v) FBS. […] 24 h after transfection (with plasmids or siRNA as indicated), HEK293 cells cultured in poly-L-lysine-coated 60 mm dishes were rinsed twice with DMEM without FBS and incubated in serum-free DMEM for 18 h. HEK293 cells were then washed once with EBSS and incubated in EBSS for 1 h.

With `O=C(O)CCc1cnc[nH]1` [imidazole propionate] the S6K1 phosphorylation (HEK293, 100 μM for 1 h) was “induced”, the “basal activation of Akt” value (HEK293, 8 h pretreatment) was “increased” and the “responsiveness of Akt S473 to insulin” value (HEK293, 8 h pretreatment) was “reduced”. The “lowest concentration with p62 phosphorylation activation” value (HEK293, absence of amino acids) was 10 nM, the p62 phosphorylation (HEK293, absence of amino acids, 1 and 2 h) was “concentration- and time-dependent increase” and the Akt phosphorylation (HEK293, compared with amino acids) was “induced”. The “time to mTORC1 activation” value (absence of amino acids) was no less than 30 min, the “IRS1 S636/S639 phosphorylation” value (amino acid-deprived HEK293, 2 h) was “induced” and the IRS1 levels (amino acid-deprived HEK293, 8 h) was “dramatically reduced”. For the same molecule, the IRS1 protein levels (amino acid-deprived cells, up to 2 h) was “not reduced” and the “time to S6K1 phosphorylation” value (presence of amino acids) was no more than 30 min.

From US20190369122A1, “METABOLIC DISORDERS” (priority 2016, published 2019)
